This test concerns the target HSV-1 ribonucleotide reductase (Human herpesvirus 1, UniProt P08543). Nature of the test: biochemical.

Structures are written as SMILES. *1 amine or outer side, *2 acyl side, *3 side chain or, on linkers, in order; H or OH if unused. Where a SMILES comes first, the peptide text is derived from it. [ ]: non-standard residue; d: D form. The star is where a group is joined. Gly(1-adamantyl) = N[C@H](C(=O)O)C12CC3CC(CC(C3)C1)C2; Asp(3,3-(CH2)4) = N[C@H](C(=O)O)C1(C(=O)O)CCCC1; tBuAla = CC(C)(C)C[C@H](N)C(=O)O; Tle = CC(C)(C)[C@H](N)C(=O)O; NH(3-pentyl) = CCC(CC)N*; Pyrrolidide = C1CCN(*)C1; X2 = CC(C)(C)CC(C)(C)N*; CO = O=C([*:1])[*:2]; X1 = CCCC1(N*)CCCC1; X3 = CCCC(C)(C)N*; X4 = CCCC(CCC)N*

What is called IC50 is the point on the concentration scale where inhibition reaches its midpoint. A lower IC50 goes with greater potency.

HSV-1 ribonucleotide reductase, sequence (P08543 whole entry): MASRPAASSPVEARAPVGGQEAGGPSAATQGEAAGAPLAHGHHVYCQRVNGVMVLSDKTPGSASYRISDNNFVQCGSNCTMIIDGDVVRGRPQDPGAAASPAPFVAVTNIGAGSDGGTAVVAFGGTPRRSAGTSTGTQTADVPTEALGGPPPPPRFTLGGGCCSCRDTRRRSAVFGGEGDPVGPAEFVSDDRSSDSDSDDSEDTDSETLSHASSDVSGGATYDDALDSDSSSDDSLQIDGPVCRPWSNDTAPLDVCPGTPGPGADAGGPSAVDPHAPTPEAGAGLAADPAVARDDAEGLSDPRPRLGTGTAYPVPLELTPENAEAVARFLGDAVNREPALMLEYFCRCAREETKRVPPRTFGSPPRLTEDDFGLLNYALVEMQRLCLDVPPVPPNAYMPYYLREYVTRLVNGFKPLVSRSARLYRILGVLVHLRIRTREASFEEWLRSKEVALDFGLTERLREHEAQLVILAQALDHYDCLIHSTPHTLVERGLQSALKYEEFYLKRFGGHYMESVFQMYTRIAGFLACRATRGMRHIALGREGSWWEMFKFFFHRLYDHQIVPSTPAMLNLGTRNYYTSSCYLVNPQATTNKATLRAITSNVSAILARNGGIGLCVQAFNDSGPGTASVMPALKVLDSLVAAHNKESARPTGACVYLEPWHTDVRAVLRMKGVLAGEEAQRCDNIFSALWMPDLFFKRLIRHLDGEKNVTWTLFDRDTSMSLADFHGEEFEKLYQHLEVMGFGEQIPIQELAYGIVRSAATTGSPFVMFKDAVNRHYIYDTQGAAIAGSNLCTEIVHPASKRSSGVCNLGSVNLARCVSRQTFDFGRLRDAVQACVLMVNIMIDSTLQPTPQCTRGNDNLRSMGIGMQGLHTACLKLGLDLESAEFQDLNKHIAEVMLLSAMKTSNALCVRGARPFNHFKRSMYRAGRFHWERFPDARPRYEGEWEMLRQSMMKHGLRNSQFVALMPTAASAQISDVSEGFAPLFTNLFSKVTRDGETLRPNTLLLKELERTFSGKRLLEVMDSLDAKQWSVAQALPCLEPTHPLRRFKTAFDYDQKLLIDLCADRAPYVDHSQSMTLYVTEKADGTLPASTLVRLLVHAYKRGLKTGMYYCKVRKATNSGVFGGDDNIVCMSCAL
From the text: HSV-1 ribonucleotide reductase (partially purified) was obtained from quiescent BHK-21/C13 cells infected with strain F HSV-1 virus at 10 plaque forming units/cell as described by E. A. Cohen et al., J. Gen.
The number of units of the enzyme preparation used in each assay was constant, based on the specific activity of the enzyme preparation.

As for `CCC(CC)NC(=O)N[C@H](C(=O)N[C@@H](CC(=O)N1CCCC1)C(=O)N[C@H](C(=O)N[C@@H](CC(C)C)C(=O)O)[C@H](C(=O)O)C(C)C)C(C)(C)C` [Et2 CHNHC(O)-Tbg-Asp(pyrrolidino)-Asp{(R)-iPr}-Leu-OH], it took 570 nM to reach half-maximal inhibition (IC50).
The compound `CCCC(CCC)NC(=O)N[C@H](C(=O)N[C@@H](CC(=O)C1CCCCC1)C(=O)N[C@H](C(=O)NCC(C)(C)C)C1(C(=O)O)CCCC1)C(C)(C)C` [Pr2 CHNHC(O)-Tbg-NHCH(2-cyclohexyl-2-oxoethyl)C(O)-Asp(cyPn)-NHCH2 CMe3] returned an IC50 of 140 nM.
For `CCCC(CCC)NC(=O)N[C@H](C(=O)N[C@@H](CC(=O)N1CCCC1)C(=O)N[C@H](C(=O)N[C@H](C)C(C)(C)C)C1(C(=O)O)CCCC1)C(C)(C)C` [Pr2 CHNHC(O)-Tbg-Asp(pyrrolidino)-Asp(cyPn)-NHCH(CH3)CMe3], it took 180 nM to reach half-maximal inhibition (IC50).
As to `CCC(CC)NC(=O)N[C@H](C(=O)N[C@@H](CC(=O)N1CCCC1)C(=O)N[C@H](C(=O)N[C@@H](CC(C)(C)C)C(=O)O)C1(C(=O)O)CCCC1)C12CC3CC(CC(C3)C1)C2` [Et2 CHNHC(O)--NH-(S)-CH(adamantyl)-C(O)-Asp(pyrrolidino)-Asp(cyPn)-γMeLeu-OH] ({NH(3-pentyl)-CO}-[Gly(1-adamantyl)]D(Pyrrolidide)[Asp(3,3-(CH2)4)][tBuAla]-OH), the concentration for half-maximal inhibition (IC50) turned out to be 82 nM.
`CCC(CC)NC(=O)N[C@H](C(=O)N[C@@H](CC(=O)N1CCCC1)C(=O)N[C@H](C(=O)N[C@@H](CC(C)(C)C)C(=O)O)[C@H](C(=O)O)C(C)C)C(C)(C)C` [Et2 CHNHC(O)-Tbg-Asp(pyrrolidino)-Asp{(R)-iPr}-γMeLeu-OH] registered an IC50 of 72 nM.
For `CC(C)(C)C[C@@H](CO)NC(=O)[C@@H](NC(=O)[C@H](CC(=O)N1CCCC1)NC(=O)[C@@H](NC(=O)NC(C)(C)C)C(C)(C)C)C1(C(=O)O)CCCC1` [Me3 CNHC(O)-Tbg-Asp(pyrrolidino)-Asp(cyPn)-γMeLeucinol], the IC50 is 100 nM.
The figure for `CCCC1(NC(=O)N[C@H](C(=O)N[C@@H](CC(=O)N2CCCC2)C(=O)N[C@H](C(=O)N[C@@H](CC(C)(C)C)C(=O)O)C2(C(=O)O)CCCC2)C(C)(C)C)CCCC1` [(1-propylcyclopentyl)-NHC(O)-Tbg-Asp(pyrrolidino)-Asp(cyPn)-γMeLeu-OH] ({X1-CO}-[Tle]D(Pyrrolidide)[Asp(3,3-(CH2)4)][tBuAla]-OH) is 130 nM; for `CCCC(CCC)NC(=O)N[C@H](C(=O)N[C@@H](CC(=O)N1CCCC1)C(=O)N[C@H](C(=O)N[C@@H](CC(C)(C)C)C(=O)O)C1(C(=O)O)CCCC1)C(C)(C)C` [Pr2 CHNHC(O)-Tbg-Asp(pyrrolidino)-Asp(cyPn)-γMeLeu-OH] ({X4-CO}-[Tle]D(Pyrrolidide)[Asp(3,3-(CH2)4)][tBuAla]-OH) it is 96 nM.
`CCCC(CCC)NC(=O)N[C@H](C(=O)N[C@@H](CC(=O)N1CCCC1)C(=O)N[C@H](C(=O)N[C@H](CO)CC(C)(C)C)C1(C(=O)O)CCCC1)C(C)(C)C(=O)O` [Pr2 CHNHC(O)-Asp(diMe)-Asp(pyrrolidino)-Asp(cyPn)-γMeLeucinol]: inhibition was half-maximal at 200 nM (IC50).
The compound `CC(C)NC(=O)N[C@H](C(=O)N[C@@H](CC(=O)N1CCCC1)C(=O)N[C@H](C(=O)N[C@H](CO)CC(C)(C)C)C1(C(=O)O)CCCC1)C(C)(C)C` [Me2 CHNHC(O)-Tbg-Asp(pyrrolidino)-Asp(cyPn)-γMeLeucinol] yielded an IC50 of 70 nM.
`CCCC(C)(CCC)NC(=O)N[C@H](C(=O)N[C@@H](CC(=O)N1CCCC1)C(=O)N[C@H](C(=O)NCC(C)(C)C)C1(C(=O)O)CCCC1)C(C)(C)C` [MePr2 CNHC(O)-Tbg-Asp(pyrrolidino)-Asp(cyPn)-NHCH2 CMe3] returned an IC50 of 160 nM.
In turn, `CCCC(CCC)NC(=O)N[C@H](C(=O)N[C@@H](CC(=O)C1CCC1)C(=O)N[C@H](C(=O)NCC(C)(C)C)C1(C(=O)O)CCCC1)C(C)(C)C` [Pr2 CHNHC(O)-Tbg-NH-(S)-CH(2-cyclobutyl-2-oxoethyl)C(O)-Asp(cyPn)-NHCH2 CMe3] showed a half-inhibitory concentration (IC50) of 250 nM.
On to `CCCC(CCC)NC(=O)N[C@H](C(=O)N[C@@H](CC(=O)N1CCCC1)C(=O)N[C@H](C(=O)NCC(C)(C)C)C1(C(=O)O)CCCC1)C(C)(C)C` [Pr2 CHNHC(O)-Tbg-Asp(pyrrolidino)-Asp(cyPn)-NHCH2 CMe3], for which the IC50 is 180 nM.
In turn, `CCCC(CCC)NC(=O)N[C@H](C(=O)N[C@@H](CC(=O)C(CC)CC)C(=O)N[C@H](C(=O)NCC(C)(C)C)C1(C(=O)O)CCCC1)C(C)(C)C` [Pr2 CHNHC(O)-Tbg-NHCH(3-ethyl-2-oxopentyl)CO-Asp(cyPn)-NHCH2 CMe3] returned a half-inhibitory concentration (IC50) of 400 nM.
Turning to `CNC(=O)N[C@H](C(=O)N[C@@H](CC(=O)N1CCCC1)C(=O)N[C@H](C(=O)N[C@H](CO)CC(C)(C)C)C1(C(=O)O)CCCC1)C(C)(C)C` [MeNHC(O)-Tbg-Asp(pyrrolidino)-Asp(cyPn)-γMeLeucinol], the IC50 came out at 890 nM.
Consider `CC(C)(C)C[C@H](NC(=O)[C@@H](NC(=O)[C@H](CC(=O)N1CCCC1)NC(=O)[C@@H](NC(=O)NC(C)(C)CC(C)(C)C)C(C)(C)C)C1(C(=O)O)CCCC1)C(=O)O` [Me3 CCH2 CMe2 NHC(O)-Tbg-Asp(pyrrolidino)-Asp(cyPn)-γMeLeu-OH] ({X2-CO}-[Tle]D(Pyrrolidide)[Asp(3,3-(CH2)4)][tBuAla]-OH), for which 180 nM corresponded to half-maximal inhibition (IC50).
For the compound `CCC(CC)NC(=O)N[C@H](C(=O)N[C@@H](CC(=O)N1CCCC1)C(=O)N[C@H](C(=O)NCC(C)C)C1(C(=O)O)CCCC1)C(C)(C)C` [Et2 CHNHC(O)-Tbg-Asp(pyrrolidino)-Asp(cyPn)-NHCH2 CHMe2], the IC50 was 600 nM.
Take `CCCC(CCC)NC(=O)N[C@H](C(=O)N[C@@H](CC(=O)N1CCCC1)C(=O)N[C@H](C(=O)NCC(C)(C)CC)C1(C(=O)O)CCCC1)C(C)(C)C` [Pr2 CHNHC(O)-Tbg-Asp(pyrrolidino)-Asp(cyPn)-NHCH2 CMe2 Et]: the half-inhibitory concentration (IC50) amounted to 240 nM.
`CC(C)(C)C[C@@H](CO)NC(=O)[C@@H](NC(=O)[C@H](CC(=O)N1CCCC1)NC(=O)[C@@H](NC(=O)Nc1ccccc1)C(C)(C)C)C1(C(=O)O)CCCC1` [PhNHC(O)-Tbg-Asp(pyrrolidino)-Asp(cyPn)-γMeLeucinol] gave an IC50 of 710 nM.
In turn, `CCC(CC)NC(=O)N[C@H](C(=O)N[C@@H](CC(=O)N1CCCC1)C(=O)N[C@H](C(=O)NCC(C)(C)C)C1(C(=O)O)CCCC1)C(C)(C)C` [Et2 CHNHC(O)-Tbg-Asp(pyrrolidino)-Asp(cyPn)-NHCH2 CMe3] returned an IC50 of 130 nM.
In turn, `CC(C)(C)C[C@@H](CO)NC(=O)[C@@H](NC(=O)[C@H](CC(=O)N1CCCC1)NC(=O)[C@@H](NC(=O)NCc1ccccc1)C(C)(C)C)C1(C(=O)O)CCCC1` [BzlNHC(O)-Tbg-Asp(pyrrolidino)-Asp(cyPn)-γMeLeucinol] displayed an IC50 of 410 nM.
Take `CCCC(CCC)NC(=O)N[C@H](C(=O)N[C@@H](CC(=O)N1CCCC1)C(=O)N[C@H](C(=O)N[C@H](CO)CC(C)(C)C)C1(C(=O)O)CCCC1)C(C)(C)C` [Title Compound of Example 8, Pr2 CHNHC(O)-Tbg-Asp(pyrrolidino)-Asp(cyPn)-γMeLeucinol]: the IC50 turned out to be 80 nM.
Next, `CCCC(C)(C)NC(=O)N[C@H](C(=O)N[C@@H](CC(=O)N1CCCC1)C(=O)N[C@H](C(=O)N[C@@H](CC(C)(C)C)C(=O)O)C1(C(=O)O)CCCC1)C(C)(C)C` [PrMe2 CNHC(O)-Tbg-Asp(pyrrolidino)-Asp(cyPn)-γMeLeu-OH] ({X3-CO}-[Tle]D(Pyrrolidide)[Asp(3,3-(CH2)4)][tBuAla]-OH): 100 nM.
Next, `CCC(CC)NC(=O)N[C@H](C(=O)N[C@@H](CC(=O)N1CCCC1)C(=O)N[C@H](C(=O)N[C@H](CO)CC(C)(C)C)C1(C(=O)O)CCCC1)C12CC3CC(CC(C3)C1)C2` [Et2 CHNHC(O)--NH-(S)-CH(adamantyl)-C(O)-Asp(pyrrolidino)-Asp(cyPn)-γMeLeucinol]: 160 nM; `CCC(CC)NC(=O)N[C@H](C(=O)N[C@@H](CC(=O)N1CCCC1)C(=O)N[C@H](C(=O)N[C@@H](CC(C)(C)C)C(=O)O)C1(C(=O)O)CCCC1)C(C)(C)C` [Et2 CHNHC(O)-Tbg-Asp(pyrrolidino)-Asp(cyPn)-γMeLeu-OH] ({NH(3-pentyl)-CO}-[Tle]D(Pyrrolidide)[Asp(3,3-(CH2)4)][tBuAla]-OH): 100 nM; `CCC(CC)NC(=O)N[C@H](C(=O)N[C@@H](CC(=O)N1CCCC1)C(=O)N[C@H](C(=O)NCCC(C)(C)C)C1(C(=O)O)CCCC1)C(C)(C)C` [Et2 CHNHC(O)-Tbg-Asp(pyrrolidino)-Asp(cyPn)-NHCH2 CH2 CMe3]: 200 nM.
The compound `CCCC(CC)(CCC)NC(=O)N[C@H](C(=O)N[C@@H](CC(=O)N1CCCC1)C(=O)N[C@H](C(=O)N[C@H](CC)C(C)(C)C)C1(C(=O)O)CCCC1)C(C)(C)C` [EtPr2 CNHC(O)-Tbg-Asp(pyrrolidino)Asp(cyPn)-NH-(R)-CH(Et)CMe3] yielded an IC50 of 140 nM.
Compound `CCCC1(NC(=O)N[C@H](C(=O)N[C@@H](CC(=O)N2CCCC2)C(=O)N[C@H](C(=O)N[C@@H](CC(C)(C)C)C(=O)OCC)C2(C(=O)O)CCCC2)C(C)(C)C)CCCC1` [(1-propylcyclopentyl)-NHC(O)-Tbg-Asp(pyrrolidino)-Asp(cyPn)-γMeLeu-OEt] ({X1-CO}-[Tle]D(Pyrrolidide)[Asp(3,3-(CH2)4)][tBuAla]-OEt) had a 50% inhibitory concentration (IC50) of 200 nM.
For `CCC(CC)NC(=O)N[C@H](C(=O)N[C@@H](CC(=O)N1CCCC1)C(=O)N[C@H](C(=O)N[C@H](CO)CC(C)(C)C)C1(C(=O)O)CCCC1)C(C)(C)C` [Et2 CHNHC(O)-Tbg-Asp(pyrrolidino)-Asp(cyPn)-γMeLeucinol], the IC50 amounted to 98 nM.
As for `CCCC(CCC)NC(=O)N[C@H](C(=O)N[C@@H](CC(=O)C1CCCC1)C(=O)N[C@H](C(=O)NCC(C)(C)C)C1(C(=O)O)CCCC1)C(C)(C)C` [Pr2 CHNHC(O)-Tbg-NH-(S)-CH(2-cyclopentyl-2-oxoethyl)C(O)-Asp(cyPn)-NHCH2 CMe3], it took 200 nM to reach half-maximal inhibition (IC50).
Next, `CCC(CC)NC(=O)N[C@H](C(=O)N[C@@H](CC(=O)N1CCCC1)C(=O)N[C@H](C(=O)N[C@H](CO)CC(C)(C)C)[C@H](C(=O)O)C(C)C)C(C)(C)C` [Et2 CHNHC(O)-Tbg-Asp(pyrrolidino)-Asp{(R)-iPr}-γMeLeucinol]: 100 nM.

Values taken from US5830864A, “Antiherpes peptide derivatives having a ureido n-terminus” (priority 1995, dated 1998).
